In patent US10654868B2, “Dihydropyrazole azepine compound serving as Akt inhibitor” (HARBIN ZHENBAO PHARMACEUTICAL CO., LTD., priority 2016, dated 2020):
pIC50: −log10 of the molar value.

How the values were obtained:
LNCaP cells = experiment: LNCaP cell activity, CellTiter-Glo live cell detection; type: cell-based; conditions: Homo sapiens, 72 h, 1000 cells per well, incubated 3 days, starting concentration 10 uM
Description: Study 2: inhibitory effects of compounds on LNCaP cell activity
The amount of ATP directly reflects the number and the state of the cells, and the number of live cells can be detected by quantitatively measuring ATP. The live cell assay kit contains luciferase and its substrate. Through the participation of ATP, luciferase can catalyze the substrate, emit a stable optical signal, and the amount of ATP in the cell was determined by detecting the intensity of the signal. Wherein, the optical signal is proportional to the amount of ATP in the cell, and ATP is positively correlated with the number of live cells, so that the cell proliferation can be detected. The assay board is analyzed by PE company's Envision.
LNCaP cell was separately seeded in a 384-well plate, each well contains 1000 cells. The cell plate was placed in a carbon dioxide incubator and incubated overnight.
A duplicated experiment was performed with 10 concentrations of compound in a 3-fold dilution with Bravo.
Compound was transferred to the cell plate with a starting concentration of 10 uM. The cell plate was incubated in a carbon dioxide incubator for 3 days.
The Promega CellTiter-Glo reagent was added to the cell plate and incubated for 10 min at room temperature to stabilize the optical signal. Read the data by a PerkinElmer Envision multi-label analyzer.

Akt3 = biological target: T1, Akt3 (Homo sapiens, UniProt Q9Y243); experiment: Akt3 kinase inhibition, LANCE TR-FRET; type: biochemical; conditions: Akt3 2 nM, ATP 160 uM, 90 min at room temperature
T1 construct: purchased life technology lot 1715050B (lot number only, catalogue number not given)
Description: (§1) Study 1: The Inhibitory Effect of the Compounds on the Activity of Akt1, Akt2 and Akt3
Akt3 protein (life technology # lot 1715050B)
(§2) In this experiment, a homogeneous time-resolved fluorescence […] energy transfer (LANCE TR-FRET®) method was used. In the assay plate, enzymes, biotinylated polypeptide substrates and compound to be tested were mixed, and ATP was added to initiate the reaction and the mixture was incubated. After that, EDTA was added to terminate the reaction while an Eu-labeled antibody was added to carry out the reaction and the reaction was then detected. The assay plate was analyzed by PE company's Envision, and the analysis mode was TR-FRET. The data were represented by fluorescence signals at 665 nm and 615 nm, respectively.
(§3) Compound formulation: compound to be tested and the reference compound were diluted with 100% DMSO, the initial concentration of the compound was 10 uM, and diluted by 10 times in a 3-fold gradient. Transfer the compound to the cell plate and duplicate each well.
(§4) Kinase assay: the enzyme and substrate were mixed with different concentrations of pre-diluted compounds. […] Leave at room temperature for 15 min and diplicate each concentration. ATP was added, and the final concentrations were 36 uM, 360 uM and 160 uM in Akt1, Akt2, and Akt3 kinase reactions, respectively, and the reaction was carried out for 90 min at room temperature (in which negative and positive controls were set). After the reaction was completed, the antibody was added and the mixture was detected, and the cells were incubated for 60 min at room temperature, and then collected by Evnvision. Data analysis and fitting according to *Lfit5 software.

Akt2 = biological target: T2, Akt2 (Homo sapiens, UniProt P31751); experiment: Akt2 kinase inhibition, LANCE TR-FRET; type: biochemical; conditions: Akt2 2 nM, ATP 360 uM, 90 min at room temperature
T2 construct: purchased life technology lot 28870GG (lot number only, catalogue number not given)
Description: as §1
Akt2 protein (life technology # lot 28870GG)
as §2, §3, §4

Akt1 = biological target: T3, Akt1 (Homo sapiens, UniProt P31749); experiment: Akt1 kinase inhibition, LANCE TR-FRET; type: biochemical
T3 construct: purchased life technology lot11629928C (lot number only, catalogue number not given)
Description: as §1
Akt1 protein (life technology # lot11629928C)
as §2, §3, §4

T1 sequence (Q9Y243 whole entry): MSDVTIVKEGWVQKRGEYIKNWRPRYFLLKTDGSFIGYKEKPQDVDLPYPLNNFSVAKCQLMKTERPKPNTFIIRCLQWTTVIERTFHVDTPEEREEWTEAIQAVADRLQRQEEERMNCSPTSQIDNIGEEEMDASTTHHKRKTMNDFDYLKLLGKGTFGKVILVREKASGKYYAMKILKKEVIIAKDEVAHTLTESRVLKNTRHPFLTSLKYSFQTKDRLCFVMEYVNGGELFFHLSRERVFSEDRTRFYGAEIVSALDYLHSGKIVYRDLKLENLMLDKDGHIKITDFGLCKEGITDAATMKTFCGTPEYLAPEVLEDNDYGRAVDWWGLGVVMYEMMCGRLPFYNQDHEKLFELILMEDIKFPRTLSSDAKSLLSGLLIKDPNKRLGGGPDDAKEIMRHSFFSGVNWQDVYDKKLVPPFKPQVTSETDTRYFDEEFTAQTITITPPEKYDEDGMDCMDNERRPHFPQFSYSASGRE
T2 sequence (P31751 whole entry): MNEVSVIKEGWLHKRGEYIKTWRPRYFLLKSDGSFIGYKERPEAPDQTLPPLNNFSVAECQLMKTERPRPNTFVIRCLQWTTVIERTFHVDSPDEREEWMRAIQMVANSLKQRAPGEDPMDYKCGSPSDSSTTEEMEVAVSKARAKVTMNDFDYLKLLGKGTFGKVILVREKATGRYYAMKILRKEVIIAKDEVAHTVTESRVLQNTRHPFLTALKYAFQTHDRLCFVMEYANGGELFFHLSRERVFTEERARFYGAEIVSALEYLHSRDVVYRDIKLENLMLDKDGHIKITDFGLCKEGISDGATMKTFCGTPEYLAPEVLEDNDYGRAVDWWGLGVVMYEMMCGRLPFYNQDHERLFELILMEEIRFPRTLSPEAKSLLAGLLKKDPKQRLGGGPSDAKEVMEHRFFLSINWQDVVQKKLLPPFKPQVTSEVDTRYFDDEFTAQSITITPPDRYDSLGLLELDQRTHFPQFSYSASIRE
T3 sequence (P31749 whole entry): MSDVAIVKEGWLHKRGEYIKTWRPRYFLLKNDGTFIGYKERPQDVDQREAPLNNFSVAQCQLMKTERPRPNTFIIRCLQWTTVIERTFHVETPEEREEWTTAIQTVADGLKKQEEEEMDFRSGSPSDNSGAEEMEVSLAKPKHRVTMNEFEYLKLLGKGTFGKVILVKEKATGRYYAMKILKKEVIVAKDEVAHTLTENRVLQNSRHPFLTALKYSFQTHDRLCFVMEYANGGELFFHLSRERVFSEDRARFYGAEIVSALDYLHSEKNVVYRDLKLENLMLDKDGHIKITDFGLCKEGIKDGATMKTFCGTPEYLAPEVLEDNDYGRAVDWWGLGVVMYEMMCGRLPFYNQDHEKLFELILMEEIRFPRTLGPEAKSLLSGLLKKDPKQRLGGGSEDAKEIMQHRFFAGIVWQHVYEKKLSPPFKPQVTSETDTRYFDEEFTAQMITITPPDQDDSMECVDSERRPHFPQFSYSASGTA

SMILES | pIC50 (LNCaP cells) | pIC50 (Akt3) | pIC50 (Akt2) | pIC50 (Akt1)
NC[C@H](Cc1ccc(F)c(F)c1)NC(=O)c1cc2c(o1)CCCn1ncc(Cl)c1-2 [Embodiment 21] | 6.21 | 7.01 | 6.51 | 7.88
CCc1cnn2c1-c1cc(C(=O)N[C@H](CN)Cc3cccc(F)c3)sc1CCC2 [Embodiment 25] | 6.41 | 7.08 | 6.84 | 8.28
NC[C@H](Cc1cccc(Cl)c1)NC(=O)c1cc2c(s1)CCCn1ncc(Cl)c1-2 [Embodiment 4] | 6.74 | 7.40 | 7.49 | 9.22
NC[C@H](Cc1ccccc1F)NC(=O)c1cc2c(s1)CCCn1ncc(Cl)c1-2 [Embodiment 6] | 6.53 | 7.02 | 7.00 | 8.42
NC[C@H](Cc1cc(F)cc(F)c1)NC(=O)c1cc2c(s1)OCCn1ncc(Br)c1-2 [Embodiment 41] | 7.21 | 7.24 | 7.41 | 8.84
Cc1cnn2c1-c1cc(C(=O)N[C@H](CN)Cc3ccc(F)c(F)c3)sc1CCC2 [Embodiment 35] | 6.82 | 7.47 | 7.66 | 9.37
NC[C@H](Cc1ccc(F)c(F)c1)NC(=O)c1cc2c(s1)OCCn1ncc(Cl)c1-2 [Embodiment 38] | 6.93 | 7.17 | 7.24 | 9.44
CNC[C@H](Cc1cccc(F)c1)NC(=O)c1cc2c(s1)CCCn1ncc(Cl)c1-2 [Embodiment 34] | 5.63 | 6.29 | 6.01 | 7.44
NC[C@H](Cc1cc(F)cc(F)c1)NC(=O)c1cc2c(s1)CCCn1ncc(Br)c1-2 [Embodiment 19] | 7.64 | 8.06 | 8.10 | 10.52
NC[C@H](Cc1cccc(C(F)(F)F)c1)NC(=O)c1cc2c(s1)CCCn1ncc(Cl)c1-2 [Embodiment 11] | 6.54 | 7.10 | 7.18 | 8.64
NC[C@H](Cc1cccc(F)c1)NC(=O)c1cc2c(s1)CCCn1ncc(C(F)(F)F)c1-2 [Embodiment 27] | 6.01 | 6.92 | 6.52 | 7.83
NC[C@H](Cc1cccc(F)c1F)NC(=O)c1cc2c(s1)CCCn1ncc(Br)c1-2 [Embodiment 16] | 6.63 | 7.35 | 7.35 | 9.07
NC[C@H](Cc1ccc(F)c(F)c1)NC(=O)c1cc2c(s1)CCCn1ncc(Br)c1-2 [Embodiment 18] | 7.11 | 8.00 | 8.10 | 9.57
Cc1cnn2c1-c1cc(C(=O)N[C@H](CN)Cc3cccc(F)c3)sc1CCC2 [Embodiment 22] | 7.21 | 7.22 | 7.59 | 8.66
NC[C@H](Cc1cccc(F)c1)NC(=O)c1cc2c(s1)C(F)(F)CCn1ncc(Cl)c1-2 [Embodiment 33] | 5.76 | 6.97 | 6.31 | 7.89
NC[C@H](Cc1cccc(F)c1)NC(=O)c1cc2c(s1)CCCn1ncc(Br)c1-2 [Embodiment 14] | 7.44 | 7.47 | 7.96 | 9.48
NC[C@H](Cc1ccncc1)NC(=O)c1cc2c(s1)CCCn1ncc(Cl)c1-2 [Embodiment 3] | 5.70 | 5.95 | 6.79 | 7.41
NC[C@H](Cc1cccc(F)c1)NC(=O)c1cc2c(s1)C(=O)CCn1ncc(Cl)c1-2 [Embodiment 31] | 5.24 | 6.09 | 5.50 | 6.91
NCC(CCc1ccccc1)NC(=O)c1cc2c(s1)CCCn1ncc(Cl)c1-2 (stereo not drawn) [Embodiment 29] | 5.58 | 6.11 | 5.96 | 7.44
NC[C@H](Cc1cccc(F)c1)NC(=O)c1cc2c(s1)CCCn1ncc(Cl)c1-2 [Embodiment 1] | 7.24 | 7.68 | 7.62 | 9.44
NC[C@H](Cc1ccc(F)cc1F)NC(=O)c1cc2c(s1)CCCn1ncc(Cl)c1-2 [Embodiment 5] | 6.70 | 7.11 | 7.11 | 8.60
